Numbered stars: 1 amine (or outer) side, 2 acyl side, 3 side chain; on linkers, the order of the positions; unused ones are H or OH. Square brackets hold non-standard residues; d marks the D form. Side chains are listed from the residue outwards. Peptide text beside a SMILES is read from it. * marks the point of attachment. γGlu = O=C(O)[C@H](CCC(=O)[*:2])N[*:1]; Palmitoyl = CCCCCCCCCCCCCCCC(=O)*; Aib = CC(C)(N)C(=O)O
Columns and labels:
[1] = Thioflavin T (ThT) assay for physical stability (fibrillation); format: physicochemical; conditions: 3 mg/ml, 100 mM acetate pH 4.5 with m-cresol, shaking at 37° C.
In short: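 Peptide at 3 mg/ml with 100 μM ThT in 100 mM acetate pH 4.5 with m-cresol, stressed at 37° C by cycles of 10 s shaking at 960 rpm and 50 s rest. Fluorescence read every 20 minutes, eight replicates; lag time in hours.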

[2] = test system: female, diabetic db/db mice; assay: Acute effects after subcutaneous treatment on blood glucose in non-fasting diabetic db/db mice; format: in vivo, mouse; conditions: for Blood glucose AUC compared to the Diabetic-Vehicle group: 24 h; for Plasma glucose area under the curve (mmol/L in 24 h): once 30 μg/kg s.c., mean ± SEM
Description: Female healthy, lean BKS.Cg-(lean)/OlaHsd and diabetes-prone, obese BKS.Cg-+Lepr^db/+Lepr^db/OlaHsd mice were ordered group housed from Envigo RMS Inc., shipped group housed and remained group housed in shoebox caging with wood chip bedding until day 15 of the predose phase. At the study start mice were approximately 12 weeks old.
Mice were housed under vivarium conditions including a 12 h light/dark cycle (light phase 04:00 AM-4:00 PM), room temperatures between 23-26° C. and a relative humidity between 30-70%. All animals had free access to water and Purina Fomulab Diet 5008.
On predose day 9 blood glucose and body mass (approximately between 08:00-10:00 AM) as well as HbA1c measurements were performed. On day 15 of the predose phase animals were assigned to treatment groups (n=8) and to new cages to match mean HbA1c and body masses between all db/db groups. An age-matched lean group was included in the study as a healthy, lean reference.
Prior to day 1 of the dosing phase, the test article was diluted with Phosphate Buffered Saline (PBS, Gibco, without CaCl2 and MgCl2) to a concentration of 1 mg/mL and aliquots of this stock solution were stored at approximately −60° C. On day 1 of the dosing phase the stock aliquot was thawed and the injected test article solution was prepared fresh by diluting it with PBS to achieve the desired concentration.
On Day 1 of the dosing phase db/db mice were either treated once with a s.c. injection of PBS-vehicle or 30 μg/kg test article. The lean reference group was treated once with a s.c. injection of PBS-vehicle. The dosing was initiated and completed between 08:00 and 10:00 AM. The applied volume was 5 ml/kg and the dose was adjusted to the most recent body mass recording of each individual.
Animals had unlimited access to water and feed during the experiment. On day 1 of the dosing phase approximately 5 μL of blood were collected via tail clips at minute −30 and 0 prior to any other inlife activities. At minute 0 mice received a s.c. dose of either PBS-vehicle or 30 μg/kg test article. Further blood samples were harvested at hour 0.25, 0.5, 1, 1.5, 2, 3, 4, 6, 8, and 24 post-dose. Glucose measurements were performed in whole blood using AlphaTRAK glucometers. If the glucose concentrations of two measurements differed by more than 20 mg/dL a third value was recorded. The Area Under the Curve (AUC) for blood glucose was calculated via the trapezoid method and for the duration of the 24 post-dose hours.
Data are depicted as means±SEM. […] A One-Way ANOVA and Tukey Test were used for pairwise multiple comparisons of all groups (n=8/group, deviations from group size are indicated). […] Data from a Non-Diabetic-Vehicle group serve as a reference dataset for the normoglycemic, lean state.
Female, 12 weeks old, healthy, lean BKS.Cg-(lean)/OlaHsd or diabetes-prone, obese BKS.Cg-+Leprdb/+Leprdb/OlaHsd mice were treated once with a s.c. injection of PBS, 30 μg/kg SEQ ID NO: 6 or 30 μg/kg SEQ ID NO: 7. The dosing was initiated and completed between 08:00 and 10:00 AM. The applied volume was 5 ml/kg and the dose was adjusted to the most recent body mass recording of each individual. Diabetic db/db mice were HbA1c- and body mass-matched. The lean reference group was treated once with a s.c. injection of PBS-vehicle.
Animals had unlimited access to water and feed during the experiment. On day 1 of the dosing phase approximately 5 μL of blood were collected via tail clips at minute −30 and 0 prior to any other inlife activities. At minute 0 mice received a s.c. dose of either PBS-vehicle, 30 μg/kg SEQ ID NO: 6 or SEQ ID NO: 7. Further blood samples were harvested at minute 15, 30, 60, 90, 120, 150, 180, 240, 360, and 480 post-dose. Glucose measurements were performed in whole blood using AlphaTRAK glucometers. If the glucose concentrations of two measurements differed by more than 20 mg/dL a third value was recorded. […]

[3] = Chemical stability assessment (UPLC-UV, relative purity loss); format: physicochemical; conditions: 1 mg/ml, 25 mM acetate buffer pH 4.5 with m-cresol (buffer system A)
In short: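 Peptide at 1 mg/mL (purity-corrected) in 25 mM acetate pH 4.5 with methionine, m-cresol and glycerol, sterile-filtered, stored 28 days at 40° C. Purity measured by UPLC-UV as peptide peak area fraction at start and after storage; value is relative percent purity loss.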

[4] = 30 μg/kg s.c. once, fed db/db mice
[5] = 30 μg/kg s.c. once, fed db/db mice, in words

Lag time before increase [1] [h] | Chemical stability [relative purity loss 28 days 40° C.] (%) at pH 4.5 [3] [%] | Structure (SMILES) | Blood glucose AUC compared to the Diabetic-Vehicle group ([2]; 30 μg/kg s.c. once, in words) | Time post dose at which lowest blood glucose levels were reached [2, 4] | Blood glucose profile following single treatment [2, 5] | Mean blood glucose concentrations twenty four hours post-dose [2, 5] | Plasma glucose area under the curve (mmol/L in 24 h) ([2]; Table 12, fed db/db mice) | Plasma glucose area under the curve (mmol/L in 24 h) ([2]; Table 10, fed db/db mice)
>45 | 4.5 | CCCCCCCCCCCCCCCC(=O)N[C@@H](CCC(=O)N[C@@H](CCC(=O)NCCCC[C@H](NC(=O)[C@H](CC(C)C)NC(=O)[C@H](CCCCN)NC(=O)[C@H](CO)NC(=O)[C@H](CC(C)C)NC(=O)[C@H](CC(=O)O)NC(=O)[C@H](CO)NC(=O)[C@@H](NC(=O)[C@H](Cc1ccccc1)NC(=O)[C@@H](NC(=O)CNC(=O)[C@H](CCC(N)=O)NC(=O)C(C)(C)NC(=O)[C@@H](N)Cc1c[nH]cn1)[C@@H](C)O)[C@@H](C)O)C(=O)N[C@@H](CCC(=O)O)C(=O)N[C@@H](CCCCN)C(=O)N[C@@H](CCC(N)=O)C(=O)N[C@@H](CCCNC(=N)N)C(=O)N[C@@H](CCC(N)=O)C(=O)NC(C)(C)C(=O)N[C@@H](CCC(=O)O)C(=O)N[C@@H](Cc1ccccc1)C(=O)N[C@H](C(=O)N[C@@H](CCC(=O)O)C(=O)N[C@@H](Cc1c[nH]c2ccccc12)C(=O)N[C@@H](CC(C)C)C(=O)N[C@@H](CCCCN)C(=O)N[C@@H](C)C(=O)N[C@H](C)C(=O)NCC(=O)N[C@@H](Cc1c[nH]cn1)C(=O)N1CCC[C@H]1C(=O)N[C@@H](CO)C(=O)NC(C)(C)C(=O)N[C@@H](CCCCN)C(=O)N1CCC[C@H]1C(=O)N1CCC[C@H]1C(=O)N1CCC[C@H]1C(=O)N[C@@H](CCCCN)C(N)=O)[C@@H](C)CC)C(=O)O)C(=O)O [SEQ ID NO: 13, H-Aib-Q-G-T-F-T-S-D-L-S-K-L-K[gGlu-gGlu-Palm]-E-K-Q-R-Q-Aib-E-F-I-E-W-L-K-A-dAla-G-H-P-S-Aib-K-P-P-P-K-NH2] (H-H[Aib]QGTFTSDLSKLK([γGlu-γGlu-Palmitoyl])EKQRQ[Aib]EFIEWLKA[dA]GHPS[Aib]KPPPK-NH2) | statistically significant reduction in the blood glucose AUC | approximately 8 hours | acute decrease in blood glucose concentrations | close to baseline | +458.34 ± 27.11 mmol/L in 24 h | –
>45 | 6.8 | CCCCCCCCCCCCCCCC(=O)N[C@@H](CCC(=O)N[C@@H](CCC(=O)NCCCC[C@H](NC(=O)[C@H](CC(C)C)NC(=O)[C@H](CCCCN)NC(=O)[C@H](CO)NC(=O)[C@H](CC(C)C)NC(=O)[C@H](CC(=O)O)NC(=O)[C@H](CO)NC(=O)[C@@H](NC(=O)[C@H](Cc1ccccc1)NC(=O)[C@@H](NC(=O)CNC(=O)[C@H](CCC(N)=O)NC(=O)C(C)(C)NC(=O)[C@@H](N)Cc1c[nH]cn1)[C@@H](C)O)[C@@H](C)O)C(=O)N[C@@H](CCC(=O)O)C(=O)N[C@@H](CCCCN)C(=O)N[C@@H](CCC(N)=O)C(=O)N[C@@H](CCCNC(=N)N)C(=O)N[C@@H](CCC(N)=O)C(=O)NC(C)(C)C(=O)N[C@@H](CCC(=O)O)C(=O)N[C@@H](Cc1ccccc1)C(=O)N[C@H](C(=O)N[C@@H](CCC(=O)O)C(=O)N[C@@H](Cc1c[nH]c2ccccc12)C(=O)N[C@@H](CC(C)C)C(=O)N[C@@H](CCCCN)C(=O)N[C@@H](C)C(=O)N[C@H](C)C(=O)NCC(=O)N1CCC[C@H]1C(=O)N1CCC[C@H]1C(=O)N[C@@H](CO)C(=O)NC(C)(C)C(=O)N[C@@H](CCCCN)C(=O)N1CCC[C@H]1C(=O)N1CCC[C@H]1C(=O)N1CCC[C@H]1C(=O)N[C@@H](CCCCN)C(N)=O)[C@@H](C)CC)C(=O)O)C(=O)O [SEQ ID NO: 7, H-Aib-Q-G-T-F-T-S-D-L-S-K-L-K[gGlu-gGlu-Palm]-E-K-Q-R-Q-Aib-E-F-I-E-W-L-K-A-dAla-G-P-P-S-Aib-K-P-P-P-K-NH2] (H-H[Aib]QGTFTSDLSKLK([γGlu-γGlu-Palmitoyl])EKQRQ[Aib]EFIEWLKA[dA]GPPS[Aib]KPPPK-NH2) | statistically significant reduction in the blood glucose AUC | approximately 8 hours | acute decrease in blood glucose concentrations | – | – | +461.54 ± 39.43 mmol/L in 24 h

Reference: patent US10519211B2, “Compounds as peptidic GLP1/glucagon/GIP receptor agonists” (SANOFI, priority 2016, dated 2019)
